Results reported in PMC5754216 (ACS infectious diseases, 2016).
“Also recorded” adds a separate entry of the source. Structures can show the parent of a compound that is named as a salt.

Experiments:
[1] = test system: Sb-Gluc (modified PV expressing Gaussia Luciferase); format: cell-based, poliovirus; details: for Ec (%), inhibitory effect on poliovirus replication: 10 µM
HeLa cells = details: 10 µM
in vitro = details: human
[2] = test system: WT-PV (wild type PV Mahoney); format: cell-based, poliovirus; details: 25 μM, 48 h
[3] = target: PV RNA-dependent RNA polymerase 3Dpol (Poliovirus type 1, UniProt P03300); format: biochemical
[4] = format: in vivo; details: rhesus macaques, pilot PK studies
293T cells = experiment: Cytotoxicity in 293T cells; format: cell-based; details: up to 100 μM
Vero cells = experiment: Viability of Vero cells; format: cell-based; details: 0.1 μM
Sb-GLuc = format: cell-based, poliovirus
[5] = test system: WT-PV (wild type PV Mahoney); experiment: microbe, parasite or virus in culture; format: cell-based, poliovirus

PV RNA-dependent RNA polymerase 3Dpol, sequence (P03300 1749-2209 limits assumed): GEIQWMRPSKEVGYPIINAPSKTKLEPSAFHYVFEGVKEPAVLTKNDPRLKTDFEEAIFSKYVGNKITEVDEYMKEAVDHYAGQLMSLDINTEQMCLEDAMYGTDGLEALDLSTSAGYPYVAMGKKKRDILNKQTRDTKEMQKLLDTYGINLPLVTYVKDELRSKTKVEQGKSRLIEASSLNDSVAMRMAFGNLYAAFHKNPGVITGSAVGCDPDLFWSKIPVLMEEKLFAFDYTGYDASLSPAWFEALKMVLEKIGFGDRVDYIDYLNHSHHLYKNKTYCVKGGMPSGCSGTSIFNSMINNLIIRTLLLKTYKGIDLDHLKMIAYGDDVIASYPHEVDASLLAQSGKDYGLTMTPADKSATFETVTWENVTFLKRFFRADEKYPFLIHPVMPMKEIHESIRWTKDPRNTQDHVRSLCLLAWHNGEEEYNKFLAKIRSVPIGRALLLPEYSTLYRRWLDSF

**Q.** Which results are given for meclocycline sulfosalicylate?
**A.** Ec (%), inhibitory effect on poliovirus replication [1]: 82.1%; Vc (%), cell viability rate on HeLa cells (HeLa cells): 81.5%

**Q.** With CC(=O)O[C@]1(C(C)=O)CC[C@H]2[C@@H]3C=C(Cl)C4=CC(=O)[C@@H]5C[C@@H]5[C@]4(C)[C@H]3CC[C@@]21C [cyproterone acetate] as the molecule, how does the viability at 10 µM (in vitro) read?
**A.** 75.4%

**Q.** With CC(=O)N1CCN(c2ccc(OCC3COC(Cn4ccnc4)(c4ccc(Cl)cc4Cl)O3)cc2)CC1 (stereo not drawn) [ketoconazole] as the molecule, how does the viability at 10 µM (in vitro) read?
**A.** 103%

**Q.** And the “Protection of HeLa cells from WT-PV (plaque assay)” value (“Protection of HeLa cells from WT-PV” below) [2]?
**A.** partial protective effect

**Q.** Which viability at 10 µM (in vitro) does the source give for CCOc1ccc(Cc2nccc3cc(OCC)c(OCC)cc23)cc1OCC [ethaverine hydrochloride] here?
**A.** 88.4%

**Q.** For COc1cc2ncnc(Nc3ccc(F)c(Cl)c3)c2cc1OCCCN1CCOCC1 [gefitinib], which viability at 10 µM (in vitro) is on record?
**A.** 80.1%

**Q.** With CCC(C)n1ncn(-c2ccc(N3CCN(c4ccc(OCC5COC(Cn6cncn6)(c6ccc(Cl)cc6Cl)O5)cc4)CC3)cc2)c1=O (stereo not drawn) [itraconazole] as the molecule, how does the viability at 10 µM (in vitro) read?
**A.** 79.4%

**Q.** What about the “Protection of HeLa cells from WT-PV” value [2] of the same molecule?
**A.** partial protective effect

**Q.** For Nc1ccn([C@@H]2O[C@H](COP(=O)(O)OP(=O)(O)OP(=O)(O)O)[C@@H](O)C2(F)F)c(=O)n1 [dFdC-TP, 2′,2′-difluoro-2′-deoxycytidine triphosphate], which “Inhibition of dsRNA elongation” value [3] is on record?
**A.** apparent inhibition; also recorded: weak inhibition

**Q.** And the “Inhibition of dsRNA synthesis or elongation” value [3]?
**A.** complete inhibition

**Q.** Which “Vc (%), cell viability rate on HeLa cells” value (“Vc (%), cell viability rate” for short) (HeLa cells) does the source give for Nc1nc(O)c2[nH]nnc2n1 [azaguanine-8] here?
**A.** 47.54%

**Q.** With C=C(NC(=O)C(=C)NC(=O)c1csc(C2=N[C@@H]3c4csc(n4)[C@H]4NC(=O)c5csc(n5)[C@H]([C@](C)(O)[C@@H](C)O)NC(=O)[C@H]5CSC(=N5)/C(=C/C)NC(=O)[C@H]([C@@H](C)O)NC(=O)c5csc(n5)[C@]3(CC2)NC(=O)[C@H](C)NC(=O)C(=C)NC(=O)[C@H](C)NC(=O)[C@H]([C@@H](C)CC)N[C@@H]2C=Cc3c([C@H](C)O)cc(nc3[C@H]2O)C(=O)O[C@@H]4C)n1)C(N)=O [thiostrepton] as the molecule, how does the viability at 10 µM (in vitro) read?
**A.** 87.9%

**Q.** For Nc1ccn([C@@H]2O[C@H](CO)[C@@H](O)C2(F)F)c(=O)n1 [gemcitabine, 2′,2′-difluoro-2′-deoxycytidine], which “Impact on immune cell counts and liver/kidney functions” value [4] is on record?
**A.** subtle and reversible impact

**Q.** And the viability at 10 µM (in vitro)?
**A.** 87.9%

**Q.** And the “Cytotoxic effect in 293T cells” value (293T cells)?
**A.** without cytotoxic effect

**Q.** What about the “Protection of HeLa cells from WT-PV” value [2] of the same molecule?
**A.** completely protected

**Q.** What about the “Effect on Vero cells” value (Vero cells) of the same molecule?
**A.** kills Vero cells

**Q.** What about the “Inhibition of Sb-GLuc replication in 293T cells” value (Sb-GLuc) of the same molecule?
**A.** inhibited Sb-GLuc replication

**Q.** What about the “Increase in viral RNA copies of WT-PV” value [5] of the same molecule?
**A.** No noticeable increase

**Q.** What about the inhibition at 2 µM ([5]; Enterovirus C, HeLa, read-out: Inhibition on WT-PV replication) of the same molecule?
**A.** > 90%

**Q.** And the IC50 ([1]; read-out: IC50 against Sb-GLuc on the basis of luminescent signal)?
**A.** 2600 nM

**Q.** For Cl.Cl.OCCN1CCN(CC/C=C2/c3ccccc3Sc3ccc(Cl)cc32)CC1 [zuclopenthixol hydrochloride], which “Ec (%), inhibitory effect on poliovirus replication” value [1] is on record?
**A.** 81.8%

**Q.** What about the “Vc (%), cell viability rate” value (HeLa cells) of the same molecule?
**A.** 92.0%

**Q.** Which “Ec (%), inhibitory effect on poliovirus replication” value [1] does the source give for NC[C@H]1O[C@H](O[C@H]2[C@H](O[C@@H]3O[C@H](CO)[C@@H](O)[C@H]3O)[C@@H](O)[C@H](N)C[C@@H]2N)[C@H](N)[C@@H](O)[C@@H]1O.O=S(=O)(O)O [ribostamycin sulfate salt] here?
**A.** 81.9%

**Q.** And the “Vc (%), cell viability rate” value (HeLa cells)?
**A.** 88.8%

**Q.** Which viability at 10 µM (in vitro) does the source give for CCCC1C(=O)N2C(N(C)C)=Nc3ccc(C)cc3N2C1=O (stereo not drawn) [azapropazone] here?
**A.** 91.2%
